Consider one compound from publication PMC6148290, “Endogenous metabolites of vitamin E limit inflammation by targeting 5-lipoxygenase” (Nature Communications, 2018).

Test [1] deals with T1, 5-LO (Homo sapiens, UniProt P09917).
T1 sequence (P09917 1-674): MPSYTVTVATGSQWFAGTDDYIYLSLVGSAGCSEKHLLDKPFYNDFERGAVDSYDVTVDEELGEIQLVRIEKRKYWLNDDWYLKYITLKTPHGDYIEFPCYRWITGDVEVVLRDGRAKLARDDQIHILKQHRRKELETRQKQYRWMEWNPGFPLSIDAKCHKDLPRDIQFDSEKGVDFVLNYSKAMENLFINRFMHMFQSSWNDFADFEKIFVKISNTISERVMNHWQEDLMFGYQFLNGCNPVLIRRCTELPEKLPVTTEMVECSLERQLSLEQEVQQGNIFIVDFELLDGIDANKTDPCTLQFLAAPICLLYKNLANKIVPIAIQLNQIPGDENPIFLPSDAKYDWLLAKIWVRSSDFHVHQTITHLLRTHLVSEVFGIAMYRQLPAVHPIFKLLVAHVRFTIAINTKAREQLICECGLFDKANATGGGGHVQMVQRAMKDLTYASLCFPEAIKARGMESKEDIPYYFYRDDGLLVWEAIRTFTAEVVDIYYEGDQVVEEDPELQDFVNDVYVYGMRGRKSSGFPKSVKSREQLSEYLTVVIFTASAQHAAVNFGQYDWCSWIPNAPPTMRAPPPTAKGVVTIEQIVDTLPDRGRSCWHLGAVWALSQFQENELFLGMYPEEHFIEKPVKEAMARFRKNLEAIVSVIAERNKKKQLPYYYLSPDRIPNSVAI
Kind of test: 5-LO product formation in activated PMNL. The format is cell-based. More on the design: Freshly isolated PMNL (1 × 10^7); endogenous in cells; host or cells: human PMNL freshly isolated from leukocyte concentrates. An excerpt:
Human PMNL, monocytes, PBMC, and platelets were freshly isolated from leukocyte concentrates. The protocols for experiments with human blood and blood cells were approved by the ethical commission of the Friedrich-Schiller-University Jena. […] PMNL were recovered from the pellet after hypotonic lysis of erythrocytes. Platelets were obtained from the supernatant and washed with PBS pH 5.9/0.9% NaCl (1:1). […]

Another test addresses T2, 12-LO (Homo sapiens, UniProt P18054).
T2 construct: 12-HETE (12-LO product from platelets in PMNL preparations); endogenous in cells; host or cells: platelets contaminating human PMNL preparations
T2 sequence (P18054 1-663): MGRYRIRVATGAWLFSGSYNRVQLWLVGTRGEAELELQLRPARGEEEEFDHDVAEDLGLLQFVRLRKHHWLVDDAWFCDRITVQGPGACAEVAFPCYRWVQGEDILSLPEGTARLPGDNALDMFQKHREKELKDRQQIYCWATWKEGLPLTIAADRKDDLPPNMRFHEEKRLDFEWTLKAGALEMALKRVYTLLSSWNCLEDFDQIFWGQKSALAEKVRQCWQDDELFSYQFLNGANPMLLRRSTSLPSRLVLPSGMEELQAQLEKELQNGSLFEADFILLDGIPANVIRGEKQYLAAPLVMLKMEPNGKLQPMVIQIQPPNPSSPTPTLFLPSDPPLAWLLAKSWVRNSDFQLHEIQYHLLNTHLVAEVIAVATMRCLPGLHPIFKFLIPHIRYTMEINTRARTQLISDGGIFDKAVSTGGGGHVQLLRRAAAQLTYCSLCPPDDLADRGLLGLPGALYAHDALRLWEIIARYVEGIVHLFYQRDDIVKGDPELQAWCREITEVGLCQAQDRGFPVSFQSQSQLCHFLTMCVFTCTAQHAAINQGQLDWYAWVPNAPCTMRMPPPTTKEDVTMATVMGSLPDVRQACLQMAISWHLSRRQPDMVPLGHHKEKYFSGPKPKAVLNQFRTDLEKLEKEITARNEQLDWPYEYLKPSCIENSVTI
Kind of test: 12-LO product formation in A23187/AA-activated PMNL. Type of test: cell-based.

Test [2] concerns the target T1, 5-LO. As to the kind of experiment: Activity of purified human recombinant 5-LO (cell-free). The format is biochemical. More on the design: made in house; host or cells: E. coli Bl21 (DE3). As for the experimental part: E. coli Bl21 (DE3) cells were transformed with pT3–5LO plasmid to express human recombinant 5-LO, which was purified by affinity chromatography on an ATP-agarose column. In brief, E. coli was lysed in 50 mM triethanolamine/HCl pH 8.0 plus EDTA (5 mM), soybean trypsin inhibitor (60 µg/ml), phenylmethanesulphonyl fluoride (1 mM), dithiothreitol (1 mM), and lysozyme (1 mg/ml). After sonication (3 × 15 s), the homogenate was centrifuged at 10,000 × g for 15 min and the supernatant again at 40,000 × g for 70 min at 4 °C. The supernatant was applied to an ATP-agarose column (Sigma-Aldrich), and the column was washed with (i) PBS pH 7.4, 1 mM EDTA, (ii) 50 mM phosphate buffer pH 7.4, 0.5 M NaCl, 1 mM EDTA, and (iii) 50 mM phosphate buffer pH 7.4, 1 mM EDTA. 5-LO was eluted with 50 mM phosphate buffer pH 7.4, 1 mM EDTA, 20 mM ATP.
Purified 5-LO (0.5 µg) in PBS pH 7.4 containing EDTA (1 mM) and ATP (1 mM) was pre-incubated with LCMs for 10 min at 4 °C, pre-warmed for 30 s at 37 °C and 5-LO product formation was started by addition of AA (Sigma-Aldrich; 20 µM if not indicated otherwise) plus CaCl2 (2 mM). […] AA was added after incubation for 5 min on ice.

The target of test [3] is T3, human microsomal prostaglandin E2 synthase (mPGES)-1 (Homo sapiens, UniProt O14684).
T3 sequence (O14684 1-152): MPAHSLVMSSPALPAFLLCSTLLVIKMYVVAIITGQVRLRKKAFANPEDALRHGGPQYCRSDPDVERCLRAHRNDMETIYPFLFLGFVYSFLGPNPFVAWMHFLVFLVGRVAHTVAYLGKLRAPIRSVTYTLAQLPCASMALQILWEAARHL
As to the kind of experiment: mPGES-1 activity in microsomal preparations of IL-1β-treated A549 cells.
Description: Microsomal membranes of interleukin-1β-treated A549 cells were prepared as source of mPGES-1[67]. […] Ice-cold homogenization buffer (0.1 M potassium phosphate buffer pH 7.4, 1 mM phenylmethanesulphonyl fluoride, 60 µg/ml soybean trypsin inhibitor, 1 µg/ml leupeptin, 2.5 mM glutathione, and 250 mM sucrose) was added, and cells were incubated for 15 min on ice prior to sonication (3 × 20 s, 4 °C). […] Microsomes were suspended in homogenization buffer and diluted in potassium phosphate buffer (0.1 M, pH 7.4) containing 2.5 mM glutathione. Membranes (2.5–5 µg total protein) were pre-incubated with LCMs for 15 min at 4 °C, and PGE2 formation was initiated by addition of PGH2 (20 µM, final concentration). The reaction was terminated after 1 min by addition of one volume stop solution (40 mM FeCl2, 80 mM citric acid and 1 nmol of the internal standard 11β-PGE2, Cayman Chemicals).

SMILES strings stand for the structures.

In general, IC50 refers to the point on the concentration scale where inhibition reaches its midpoint.

On to `Cc1c(C)c2c(c(C)c1O)CC[C@@](C)(CCCC(C)CCCC(C)CCCC(C)C(=O)O)O2` (stereo partly drawn) [4a, 13-((2R)-6-hydroxy-2,5,7,8-tetramethylchroman-2-yl)-2,6,10-trimethyltridecanoic acid], for which the IC50 at 5-LO [1] was 80 nM; against 12-LO, greater than 3000 nM; at 5-LO [2], 270 ± 10 nM; in test [3] it was 8800 nM. The “12-LO product formation/PMNL, residual activity” value at 12-LO (at 3 µM, mean ± s.e.m., n = 3, n.i. no inhibition) is on record as 55.3 ± 1.7 % of control.
